Results taken from patent US20030180375A1, “Use of xenon for treating neurointoxications” (AGA AB, priority 1999, published 2003).

Tests used:
PC12 cells [1] = experiment: Dopamine release of differentiated PC12 cells in a hypoxic situation (helium instead of oxygen), Example 1; type: cell-based, rats
From the text: An in vitro experiment with PC12 cells is concerned. These PC12 cells are dependants of a pheochromocytoma of rats. […] PC12 cells can be reproduced continuously in vitro. Following the addition of “nerve growth factor”, they start differentiating and become neurons which in many respects have the property of in vivo neurons, particularly the properties which relate to the neurotransmitter release. PC12 cells are acknowledged as neuronal model.
PC12 cells differentiated in such a manner when exposed to a hypoxic situation, release dopamine. […] If the cells are treated under these hypoxic conditions with xenon in defined concentrations over the same period of time, the neurotransmitter release will be dropped. […] If a hypoxic situation is triggered by a dose of helium instead of oxygen, the curve of the dopamine concentration will result as shown in the curve produced from the solid triangles. A maximum dopamine concentration is shown in this case after about 40 minutes. […] In the above-described experiment, the gases used were given to the cells by mixing them with the growth buffer for the cells. In this case, saturated gas buffer solutions are involved.

PC12 cells [2] = experiment: Dopamine release of differentiated PC12 cells under stress conditions (N2 hypoxia, glutamate), Example 2; type: cell-based, rats; parameters: dopamine release: dose or concentration left out as unconfirmed; conditions: FIG. 2
From the text: The differentiated PC12 cells described in Example 1 were distributed to various vessels and exposed to differing conditions. These conditions are defined as follows: […]
The dopamine release may even be increased if, in addition to the nitrogen atmosphere, glutamate, which represents a neurotransmitter and has a neurotoxic effect in greater doses, was given as well (group: Glu+N2).
Thus, the addition of glutamate to the cells effects an increased dopamine release, particularly when the cells are kept under hypoxic conditions.

`[Xe]` [xenon] was tested, and the “reversibility of the xenon effect” value (PC12 cells [1]; after the xenon is washed out, cells cannot be distinguished from untreated cells) was “fully reversible”, the “dopamine concentration over the time course” value (PC12 cells [1]; xenon given in a hypoxic situation, saturated gas buffer solution, compared with non-stressed controls, FIG. 1A) was “virtually no longer differ from the control cell population” and the “relative dopamine concentration (dopamine release)” value (PC12 cells [1]; xenon in a hypoxic situation, compared with control cells, FIG. 1B) was “reduced down to values of the control cells”. The “dopamine release compared to the corresponding (glutamate+N2) experiment” value (PC12 cells [2]; Glu+Xe: 10 M glutamate for 30 minutes of incubation in xenon) was “reduced by two-thirds”, the dopamine release (PC12 cells [2]; Glu+Xe: glutamate for 30 minutes of incubation in xenon) was “slightly increased dopamine release” and the unintentional neurotransmitter release (PC12 cells [2]; simultaneous supply of xenon, glutamate and/or hypoxic conditions) was “reduced many times over”.
